Experimental data: patent publication US20250375529A1, “PHOSPHORYLCHOLINE-TUFTSIN CONJUGATE FOR TREATING OCULAR INFLAMMATION” (TARSIER PHARMA LTD., priority 2017, published 2025)

Columns and labels:
[1] = test system: mice with collagen-induced arthritis; settings: subcutaneous (5 μg/mouse) and oral (50 μg/mouse and 250 μg/mouse) administration; cited from earlier work
[2] = test system: experimental mouse models of autoimmune diseases; settings: in the three mouse models; cited from earlier work
[3] = test system: anti-CD3-activated PBMCs; experiment: Effects of TPC on cytokine secretion by anti-CD3-activated PBMCs (Luminex); format: cell-based
Protocol: FIGS. 1A-1B: Very low dose TPC has a strong immunomodulatory effect. Bar graphs showing the effects of TPC at a range of doses, on anti-CD3-activated PBMCs 48 h after treatment. Secretion of pro-inflammatory cytokine TNFα (1A) and anti-inflammatory cytokine IL-10 (1B) are shown. Column statistics, one-sample t test compared to a hypothetical value of 100 was used. *-P<0.05, **-P<0.01, ***-P<0.005
The immunomodulatory effect of TPC was determined in vitro on PBMCs from healthy donors. PBMCs were harvested and allowed to adhere to culture plates. TPC at various concentrations, or PBS or dexamethasone as controls were then added and an hour later anti-CD3 stimulating antibody was added to induce an inflammatory state. 48 hours later the supernatant was harvested from the cells and cytokine levels were assayed using standard Luminex protocols. Levels of cytokine induction was interpolated from standard curves, using 5-parameter non-linear regression analyses, where y=(A+((B−A)/(1+(((B−E)/(E−A))*((x/C)^D))))). The interpolated data was then normalized to vehicle controls (anti-CD3 stimulation alone). […] Once again, the effect was greatest at very low doses, as the 0.005 μg/ml TPC dose had the strongest effect causing a 33% increase in IL-10 levels. […] (FIG. 1B).

[4] = test system: mice with dextran sodium sulfate induced colitis; settings: subcutaneous (5 μg/mouse) and oral (50 μg/mouse and 250 μg/mouse) administration; cited from earlier work
[5] = test system: THP-1 human monocyte cell line polarized to M1 macrophages; experiment: IL-10 secretion by THP-1-derived M1 macrophages; format: cell-based; settings: THP-1 M0 (100 ng/ml PMA 48 hours) polarized to M1 with 10 ng/ml LPS; TPC 400 ug/ml, dexamethasone 1 uM, IL-4 and IL-13 20 ng/ml; versus PBS control
Protocol: FIG. 2: TPC enhances the anti-inflammatory effect of steroids. A bar graph showing the effect of IL-4/IL-13, TPC, dexamethasone and dexamethasone+TPC on IL-10 secretion by macrophages. *-P<0.05, **-P<0.01
To test the hypothesis that a combination of steroids and TPC will have a beneficial effect on treating inflammation, cells of the THP-1 human monocyte cell line were differentiated to M0 macrophages with 100 ng/ml PMA for 48 hours and then polarized to M1 macrophages with 10 ng/ml LPS. These cells were then tested with the following compounds: PBS (negative control), IL-4 and IL-13 (20 ng/ml, positive control as they induce the cells to a M2 phenotype), TPC (400 ug/ml), dexamethasone (1 uM), and a combination of dexamethasone (1 uM) and TPC (400 ug/ml). […] Further, since TPC itself reduces pro-inflammatory cytokine secretion as well, it may be used, not just in combination, but to reduce the total dose of steroid administered.

[6] = test system: lupus prone mice; settings: subcutaneous (5 μg/mouse) and oral (50 μg/mouse and 250 μg/mouse) administration; cited from earlier work
[7] = 0.005 μg/ml TPC, PBMCs from healthy donors, anti-CD3 stimulation, supernatant at 48 hours, normalized to vehicle control (anti-CD3 alone)

Tuftsin-PhosphorylCholine [TPC]
joint damage [1]: prevented | T and B regulatory cells [2]: enhanced expansion | anti-inflammatory IL-10 [2]: increased | proinflammatory cytokine expression such as IL-6, IL-17, TNFα, IFNγ [2]: inhibited | increase in IL-10 levels [3, 7]: 33% | lowering of TNFα levels [3, 7]: 41% | increase on IL-10 secretion as compared to dexamethasone ([3]; anti-CD3-activated PBMCs, 48 hours, TPC relative to dexamethasone): 220% | colitis [4]: reduced | IL-10 expression [5]: strong increase | glomerulonephritis onset [6]: prevented
